This passage reports EC50, EC90 and CC50 results from article PMC10788925 (Journal of Medicinal Chemistry, 2023).

The subject of one series is HEV-3 replicon p6-Gluc. Kind of series: microbe, parasite or virus in culture. To be noted: Hepatitis E virus. The series is classed as cell-based, Hepatitis E virus.
Another series deals with CHIKV LR2006-OPY1. Description: microbe, parasite or virus in culture. The series is classed as cell-based. To be noted: Chikungunya virus.
The test system of another series is SARS-CoV-2. Kind of series: microbe, parasite or virus in culture. The class given is cell-based.
The subject of a further series is RVFV strain MP-12. Description: microbe, parasite or virus in culture. To be noted: Rift Valley fever virus. The series is classed as cell-based.
In a further series the test system is Huh-7 cells. The conditions noted are these: human.
A further series concerns Vero E6 cells. To be noted: African green monkey (Chlorocebus sp.).
Series [1] can be described thus: in vitro. To be noted: human.
Series [2] can be described thus: in vitro. The conditions noted are these: human. This is another data set of the same source.
The nature of series [3]: in vitro.
The mark [4] stands for this setting: Severe acute respiratory syndrome coronavirus 2, Vero C1008, 24 h.
Setting [5] is: Severe acute respiratory syndrome coronavirus 2, Vero C1008, 48 h.
Setting [6] is: African green monkey (Chlorocebus sp.).

Like-named read-outs stand apart in the source and are kept apart here.

Usually EC50 stands for the concentration needed to bring the measured effect to its halfway point. The EC90 is the concentration needed for an effect of 90%. Regarding `COC(=O)[C@H]1[C@@H](O)[C@@]2(O)c3c(Cl)cc(Cl)cc3O[C@@]2(c2ccc(OC)cc2)[C@@H]1c1ccccc1` (racemic) [9da, (±)-Methyl (1R,2R,3S,3aR,8bS)-6,8-dichloro-1,8b-dihydroxy-3a-(4-methoxyphenyl)-3-phenyl-2,3,3a,8b-tetrahydro-1H-cyclopenta[b]benzofuran-2-carboxylate], the EC50 is 25.4 nM with HEV-3 replicon p6-Gluc (HepG2, 24 h); 17.5 nM with HEV-3 replicon p6-Gluc (HepG2, 48 h); 0.0181 µM in the series on CHIKV LR2006-OPY1 (Huh-7, 24 h); 0.0224 µM in the series with CHIKV LR2006-OPY1 (Huh-7, 48 h); 0.111 µM in the series with SARS-CoV-2 (setting [4]); 0.176 µM with SARS-CoV-2 (setting [5]). Also, the EC50 came out at 0.102 µM in the series on RVFV strain MP-12 (Vero C1008, 24 h) and 0.143 µM in the series with RVFV strain MP-12 (Vero C1008, 48 h). Also, the EC90 in the series with HEV-3 replicon p6-Gluc (HepG2, 24 h) amounted to 642 nM; in the series with HEV-3 replicon p6-Gluc (HepG2, 48 h), 725 nM; in the series with CHIKV LR2006-OPY1 (Huh-7, 24 h) it was 0.0834 µM; with CHIKV LR2006-OPY1 (Huh-7, 48 h), 0.0923 µM; with SARS-CoV-2 (setting [4]), 0.387 µM; in the series with SARS-CoV-2 (setting [5]), 0.557 µM. For the same compound, the EC90 amounted to 0.227 µM in the series on RVFV strain MP-12 (Vero C1008, 24 h) and 0.217 µM in the series with RVFV strain MP-12 (Vero C1008, 48 h). In addition, the CC50 was > 1 µM with Huh-7 cells; > 1 µM in the series with Vero E6 cells; > 1 µM in the series “in vitro [2]”; > 1 µM in “in vitro [3]” (setting [6]); > 1 µM in “in vitro [3]” (chlorocebus sabaeus, CC50). For the same compound, in the series “in vitro [1]”, the CC50 at 24 h worked out at 0.798 µM. Also, the CC50 at 48 h in “in vitro [1]” was 0.149 µM.
Take `COC(=O)[C@H]1[C@@H](O)[C@@]2(O)c3c(F)cc(F)cc3O[C@@]2(c2ccc(OC)cc2)[C@@H]1c1ccccc1` (racemic) [9c, (±)-Methyl (1R,2R,3S,3aR,8bS)-6,8-difluoro-1,8b-dihydroxy-3a-(4-methoxyphenyl)-3-phenyl-2,3,3a,8b-tetrahydro-1H-cyclopenta[b]benzofuran-2-carboxylate]: the EC50 in the series with HEV-3 replicon p6-Gluc (HepG2, 24 h) is > 1000 nM; in the series on HEV-3 replicon p6-Gluc (HepG2, 24 h, read-out: HEV, EC50 (24 h, nM)), > 1000 nM; in the series with HEV-3 replicon p6-Gluc (HepG2, 48 h) it was > 1000 nM; in the series with HEV-3 replicon p6-Gluc (HepG2, 48 h, read-out: HEV, EC50 (48 h, nM)), > 1000 nM. Also, the EC90 in the series on HEV-3 replicon p6-Gluc (HepG2, 24 h) is > 1000 nM; in the series with HEV-3 replicon p6-Gluc (HepG2, 24 h, read-out: HEV, EC90 (24 h, nM)), > 1000 nM; in the series on HEV-3 replicon p6-Gluc (HepG2, 48 h), > 1000 nM; with HEV-3 replicon p6-Gluc (HepG2, 48 h, read-out: HEV, EC90 (48 h, nM)2), > 1000 nM. Further, the CC50 was > 1 µM in the series on HepG2 cells (read-out: HEP2G, CC50 (24 h), 24 h); > 1 µM in the series with HepG2 cells (read-out: HEP2G, CC50 (48 h), 48 h); > 1 µM in the series “in vitro [1]”.
In the series on HEV-3 replicon p6-Gluc (HepG2, 24 h), `COC(=O)[C@H]1[C@@H](O)[C@@]2(O)c3c(OC)cc(OC)cc3O[C@@]2(c2ccc(Br)cc2)[C@@H]1c1ccccc1` (racemic) [11bb, (±)-Methyl (1R,2R,3S,3aR,8bS)-3a-(4-bromophenyl)-1,8b-dihydroxy-6,8-dimethoxy-3-phenyl-2,3,3a,8b-tetrahydro-1H-cyclopenta[b]benzofuran-2-carboxylate] gave an EC50 of 7.3 nM and an EC90 of 158 nM. Moreover, in the series on HEV-3 replicon p6-Gluc (HepG2, 48 h), a half-maximal effect (EC50) was put at 9.4 nM and the EC90 is 91.3 nM. In “in vitro [1]”, this compound showed a CC50 at 24 h of 0.42 µM and a CC50 at 48 h of 0.0271 µM.
As to `COC(=O)[C@H]1[C@@H](O)[C@@]2(O)c3c(OC)cc(OC)cc3O[C@@]2(c2ccc(OC)cc2)[C@@H]1c1ccccc1` (racemic) [(±)-methyl rocaglate (11bc), (±)-Methyl (1R,2R,3S,3aR,8bS)-1,8b-dihydroxy-6,8-dimethoxy-3a-(4-methoxyphenyl)-3-phenyl-2,3,3a,8b-tetrahydro-1H-cyclopenta[b]benzofuran-2-carboxylate, reference compound], in the series on HEV-3 replicon p6-Gluc (HepG2, 24 h), the EC50 was 28.4 nM and the EC90 was found to be 631 nM. In the series with HEV-3 replicon p6-Gluc (HepG2, 48 h), the EC50 was 29.9 nM and the EC90 came out at 188 nM. In “in vitro [1]”, this compound came in with a CC50 at 24 h of 0.69 µM and a CC50 at 48 h of 0.0653 µM.
With `COC(=O)[C@H]1[C@@H](O)[C@@]2(O)c3c(Br)cc(OC)cc3O[C@@]2(c2ccc(OC)cc2)[C@@H]1c1ccccc1` (racemic) [9l, (±)-Methyl (1R,2R,3S,3aR,8bS)-8-bromo-1,8b-dihydroxy-6-methoxy-3a-(4-methoxyphenyl)-3-phenyl-2,3,3a,8b-tetrahydro-1H-cyclopenta[b]benzofuran-2-carboxylate], in the series with HEV-3 replicon p6-Gluc (HepG2, 24 h), the response was half-maximal at 83.6 nM (EC50) and the EC90 came to 343 nM. In the series with HEV-3 replicon p6-Gluc (HepG2, 48 h), this compound yielded an EC50 of 44.7 nM and an EC90 of 305 nM. Also, in “in vitro [1]”, the CC50 at 24 h turned out to be 0.787 µM and the CC50 at 48 h stood at 0.114 µM.
In the series with HEV-3 replicon p6-Gluc (HepG2, 24 h), `COC(=O)[C@H]1[C@@H](O)[C@@]2(O)c3c(Cl)cc(Br)cc3O[C@@]2(c2ccc(OC)cc2)[C@@H]1c1ccccc1` (racemic) [9f, (±)-Methyl (1R,2R,3S,3aR,8bS)-6-bromo-8-chloro-1,8b-dihydroxy-3a-(4-methoxyphenyl)-3-phenyl-2,3,3a,8b-tetrahydro-1H-cyclopenta[b]benzofuran-2-carboxylate] came in with an EC50 of 9.9 nM and an EC90 of 583 nM. In the series with HEV-3 replicon p6-Gluc (HepG2, 48 h), the EC50 amounted to 14.9 nM and the EC90 came out at 454 nM. Moreover, in the series “in vitro [1]”, the CC50 at 24 h came out at 0.663 µM and the CC50 at 48 h stood at 0.061 µM.
For `COc1cc(OC)c2c(c1)O[C@@]1(c3ccc(F)cc3)[C@H](c3ccccc3)[C@@H](C(=O)N(C)C)[C@@H](O)[C@@]21O` (racemic) [14baa, (±)-(1R,2R,3S,3aR,8bS)-3a-(4-fluorophenyl)-1,8b-dihydroxy-6,8-dimethoxy-N,N-dimethyl-3-phenyl-2,3,3a,8b-tetrahydro-1H-cyclopenta[b]benzofuran-2-carboxamide], in the series on HEV-3 replicon p6-Gluc (HepG2, 24 h), the EC50 came out at 229 nM and the EC90 is > 1000 nM. In the series with HEV-3 replicon p6-Gluc (HepG2, 48 h), it took 208 nM to reach a half-maximal effect (EC50) and the EC90 was found to be 829 nM. In “in vitro [1]”, this compound registered a CC50 at 24 h of 0.966 µM and a CC50 at 48 h of 0.297 µM.
In the series with HEV-3 replicon p6-Gluc (HepG2, 24 h), `CONC(=O)[C@H]1[C@@H](O)[C@@]2(O)c3c(OC)cc(Br)cc3O[C@@]2(c2ccc(OC)cc2)[C@@H]1c1ccccc1` (racemic) [14m, (±)-(1R,2R,3S,3aR,8bS)-6-Bromo-1,8b-dihydroxy-N,8-dimethoxy-3a-(4-methoxyphenyl)-3-phenyl-2,3,3a,8b-tetrahydro-1H-cyclopenta[b]benzofuran-2-carboxamide] gave an EC50 of 1 nM and an EC90 of 328 nM. In the series with HEV-3 replicon p6-Gluc (HepG2, 48 h), this compound showed an EC50 of 0.2 nM and an EC90 of 1.6 nM. In the series “in vitro [1]”, this compound showed a CC50 at 24 h of 0.748 µM and a CC50 at 48 h of 0.001 µM.
Turning to `CONC(=O)[C@H]1[C@@H](O)[C@@]2(O)c3c(Cl)cc(Br)cc3O[C@@]2(c2ccc(OC)cc2)[C@@H]1c1ccccc1` (racemic) [14f, (±)-(1R,2R,3S,3aR,8bS)-6-Bromo-8-chloro-1,8b-dihydroxy-N-methoxy-3a-(4-methoxyphenyl)-3-phenyl-2,3,3a,8b-tetrahydro-1H-cyclopenta[b]benzofuran-2-carboxamide], the EC50 in the series on HEV-3 replicon p6-Gluc (HepG2, 24 h) was found to be 4.6 nM; with HEV-3 replicon p6-Gluc (HepG2, 48 h) it was 2.6 nM; in the series on CHIKV LR2006-OPY1 (Huh-7, 24 h) it was 0.0031 µM; in the series on CHIKV LR2006-OPY1 (Huh-7, 48 h), 0.0034 µM; in the series on SARS-CoV-2 (setting [4]), 0.0514 µM; with SARS-CoV-2 (setting [5]), 0.19 µM. In addition, the EC50 with RVFV strain MP-12 (Vero C1008, 24 h) came to 0.0421 µM; in the series with RVFV strain MP-12 (Vero C1008, 48 h), 0.106 µM. Also, the EC90 was 53.4 nM with HEV-3 replicon p6-Gluc (HepG2, 24 h); 30.2 nM in the series with HEV-3 replicon p6-Gluc (HepG2, 48 h); 0.019 µM in the series on CHIKV LR2006-OPY1 (Huh-7, 24 h); 0.0202 µM in the series with CHIKV LR2006-OPY1 (Huh-7, 48 h); 0.92 µM in the series with SARS-CoV-2 (setting [4]); 0.34 µM in the series on SARS-CoV-2 (setting [5]). Also, the EC90 in the series with RVFV strain MP-12 (Vero C1008, 24 h) came to 0.0925 µM; in the series on RVFV strain MP-12 (Vero C1008, 48 h), 0.113 µM. Moreover, the CC50 with Huh-7 cells was > 1 µM; in “in vitro [2]”, > 1 µM; in “in vitro [3]” (setting [6]), > 1 µM; in the series “in vitro [3]” (chlorocebus sabaeus, CC50), > 1 µM. In the series “in vitro [1]”, the CC50 at 24 h turned out to be 0.407 µM. This compound came in with a CC50 at 48 h in the series “in vitro [1]” of 0.0156 µM.
In the series with HEV-3 replicon p6-Gluc (HepG2, 24 h), `COC(=O)[C@H]1[C@@H](O)[C@@]2(O)c3c(OC)cc(Cl)cc3O[C@@]2(c2ccc(OC)cc2)[C@@H]1c1ccccc1` (racemic) [9k, (±)-Methyl (1R,2R,3S,3aR,8bS)-6-chloro-1,8b-dihydroxy-8-methoxy-3a-(4-methoxyphenyl)-3-phenyl-2,3,3a,8b-tetrahydro-1H-cyclopenta[b]benzofuran-2-carboxylate] displayed an EC50 of 5.4 nM and an EC90 of 45.1 nM. Further, in the series with HEV-3 replicon p6-Gluc (HepG2, 48 h), a half-maximal response (EC50) required 2.5 nM and the 90% effect level (EC90) was put at 45.5 nM. In “in vitro [1]”, the CC50 at 24 h was found to be 0.443 µM and the CC50 at 48 h came to 0.0199 µM.
As to `COC(=O)[C@H]1[C@@H](O)[C@@]2(O)c3c(Cl)cc(OC)cc3O[C@@]2(c2ccc(OC)cc2)[C@@H]1c1ccccc1` (racemic) [9j, (±)-Methyl (1R,2R,3S,3aR,8bS)-8-chloro-1,8b-dihydroxy-6-methoxy-3a-(4-methoxyphenyl)-3-phenyl-2,3,3a,8b-tetrahydro-1H-cyclopenta[b]benzofuran-2-carboxylate], in the series on HEV-3 replicon p6-Gluc (HepG2, 24 h), a half-maximal response (EC50) required 92.6 nM and it took 577 nM to reach the 90% level (EC90). In the series on HEV-3 replicon p6-Gluc (HepG2, 48 h), the EC50 is 75.7 nM and the EC90 came out at 394 nM. In “in vitro [1]”, this compound had a CC50 at 24 h of 0.832 µM and a CC50 at 48 h of 0.148 µM.
